Tests used:
Assay type in all cases: cell-based
[1] = system: FR-α/SV40 (GC)6 promoter; assay: FR-α/SV40 (GC)6 chimeric promoter-luciferase in HeLa cells with ER; settings: in the presence of ER
Experimental: FIG. 6C is a graph showing HeLa cells (10^6) which were transfected with FR-α promoter-luciferase (FR-α-Luc) (400 ng) [Seq. ID No. 6], FR-1-Luc in which the G/C-rich region (−47 nt to −18 nt) [Seq. ID No. 7] of the P4 promoter was replaced by the G/C-rich region in the SV40 early promoter (FR-α/SV40 (GC)6) (400 ng), or with FR-α-Luc[Seq. ID No. 6] in which the initiator region (−28 nt to +33 nt) [Seq. ID No. 8] was replaced by the TATA box-containing initiator region of the SV40 early promoter (FR-α/SV40-lnr) (400 ng). ER expression plasmid (25 ng) or the plasmid vector (25 ng) was co-transfected as indicated. The transfected cells were grown in the presence of E2 (1 nM) and either in the absence or in the presence of ICI 182, 780 for 48 h before harvesting them for luciferase assays.
DNA Constructs: Construct design used either natural restriction sites or restriction sites created by the polymerase chain reaction (PCR) using Vent DNA polymerase (New England Biolabs) and custom oligonucleotides from Gibco BRL. In cases where a natural restriction site could not be found for use, complementary primers containing an appropriate restriction site or point mutation were used in conjunction with upstream and downstream primers containing restriction sites. Alternatively, mutagenic oligonucleotides were used as end primers to amplify the desired fragment. […]

[2] = system: FR-α; assay: Induction of endogenous FR-α in ER+/FRα-negative cells; settings: ER+/FRα-negative cells including BG-1; results not shown
Source text: It appears that ER will only modulate the endogenous FR-α gene in cells in which the gene is transcriptionally active.

[3] = system: FR-α promoter; assay: FR-α promoter-luciferase reporter in IGROV-1 cells co-transfected with ER; settings: IGROV-1, ER co-transfected, 1 nM E2, pharmacologic concentrations of antiestrogen
Experimental: (§1) (FIG. 1A) HeLa and IGROV-1 cells (10^6) were co-transfected with the FR-α promoter-luciferase construct (400 ng) and either an ER expression plasmid (25 ng) or with the plasmid vector alone (25 ng) in the presence of 1 nM E2. Antiestrogens were introduced at the time of transfection. […] (FIG. 1B) The FR-α promoter-luciferase construct (400 ng) was transfected into BG-1 cells (10^6) in the absence or in the presence of E2 (1 nM) and antiestrogens were introduced at the time of transfection. (FIG. 1C) HeLa cells (10^6) were transfected with the thymidine kinase (TK)-promoter-luciferase (200 ng) or Rous Sarcoma Virus (RSV)-promoter-luciferase (200 ng) constructs and were co-transfected with either ER plasmid (25 ng) or with the plasmid vector (25 ng). Antiestrogens were introduced at the time of transfection.
(§2) Cell Culture and Transfection: HeLa I-1 cells were kindly provided by Dr. S. T. Rosen. BG-1 cells were provided by Dr. Randolf Ruch. […] Uniformity of transfection was routinely monitored through cotransfections with the β-galactosidase expression plasmid, pSV-β-gal (Promega). β-galactosidase activity was measured colorimetrically using the assay system available from Promega. […]

[4] = system: FR-α promoter; assay: FR-α promoter-luciferase in HeLa cells transfected with ERβ
Experimental: FIG. 8 is graph showing an effect of ERα vs. […] on FR-α promoter activity. HeLa cells (10^6) were transfected with the FR-α promoter-luciferase construct (200 ng) and co-transfected individually or in combination with expression plasmids (25 ng) for ERα, […] or with the plasmid vector. The cells were treated from the time of transfection with E2 (1 nm) and either without or with ICI 182, 780.
Effect of ERβ on FR-α Promoter activity: Since ER+ gynecological tumors are known to frequently co-express ERα and ERβ, the inventor herein tested whether ERβ may modulate FR-α similar to ERα or may otherwise counteract the effect of ERα.

[5] = system: FR-α promoter; assay: FR-α promoter-luciferase reporter in HeLa cells co-transfected with ER
Experimental: as §1
FIGS. 2A and 2B are graphs showing an estrogen and antiestrogen dose response of a control ERE-driven promoter and the FR-α promoter in HeLa cells. The Y-axis in FIG. 2A indicates promoter activation, whereas the Y-axis in FIG. 2B indicates promoter repression. The cells (10^6) were transfected with either ERE2E1b-luciferase (100 ng) (FIG. 2A) or FR-α promoter-luciferase (100 ng) (FIG. 2B) and co-transfected with the ER expression plasmid (50 ng) where indicated. Cells that were not co-transfected with the ER-plasmid were co-transfected instead with the plasmid vector alone (50 ng).
FIGS. 3A and 3B are graphs showing a time course of response of the control ERE2E1b-luciferase (FIG. 3A) and FR-α promoter luciferase (FIG. 3B) to antiestrogens in HeLa cells. The cells (10^6) were transfected with the indicated promoter-luciferase construct (100 ng) and co-transfected with ER expression plasmid (50 ng) in the presence of E2 (1 nM).
In one set of experiments, the antiestrogens were removed after a 6 h treatment.
Cell Culture and Transfection: HeLa I-1 cells were kindly provided by Dr. S. T. Rosen. BG-1 cells were provided by Dr. Randolf Ruch. HeLa (American Type Tissue Collection) and HeLa I-1 cells were routinely cultured in phenol red-free MEM supplemented with fetal bovine serum (FBS) (10%), penicillin (100 units/mL), streptomycin ([…]), and L-glutamine (2 mM). BG-1 and IGROV1 (American Type Tissue Collection) cells were routinely cultured in DMEM and supplemented as above. Treated or transfected cells were grown in phenol-red free media supplemented with charcoal-stripped FBS (5% v/v), penicillin (100 units/mL), streptomycin ([…]), L-glutamine (2 mM), insulin (2 μg/mL), and transferrin (40 μg/mL) unless otherwise noted. In addition, treated HeLa I-1 cells were grown in culture with 50 μg/mL G418. […] Uniformity of transfection was routinely monitored through cotransfections with the β-galactosidase expression plasmid, pSV-β-gal (Promega). β-galactosidase activity was measured colorimetrically using the assay system available from Promega.
Luciferase Assay: Forty-eight hours after transfection, the cells were washed once with PBS (10 mM sodium phosphate, pH 7.5, 150 mM NaCl) and harvested in 400 μL of reporter lysis buffer provided with the luciferase assay system (Promega). The samples were centrifuged at 12,000 g for 2 min at room temperature. The supernatant was assayed for luciferase activity in a luminometer (Lumat LB9501, Berthold) using the luciferase substrate from Promega.

[6] = system: FR-α promoter; assay: FR-α promoter-luciferase reporter in BG-1 cells (endogenous ER); settings: BG-1, endogenous ER
Experimental: as §1, §2

`C[C@]12CC[C@@H]3c4ccc(O)cc4C[C@@H](CCCCCCCCC[S+]([O-])CCCC(F)(F)C(F)(F)F)[C@H]3[C@@H]1CC[C@@H]2O` (stereo partly drawn) [ICI 182,780] was tested, and the chimeric promoter activity [1] was “this activation was counteracted”, the “induction of endogenous FR-α expression” value [2] was “In no case did the inventor observe induction” and the “FR-α promoter activity after repression by ER” value [3] was “either partially or completely restored to the uninhibited values”. For the same molecule, the “repression of the FR-α promoter by ERβ” value [4] was “reversed”, the “duration of derepression after withdrawing the compound” value ([5]; 6 h treatment) was “at least 18 h” and the “derepression of FR-α promoter after 6 h treatment and withdrawal” value ([5]; 6 h treatment, then compound withdrawn) was “full derepression”. For the same molecule, the “effect on FR-α promoter (ligand dose response)” value ([5]; HeLa, ER co-transfected) was “the repression was counteracted”, the “FR-α promoter activity after repression by ER” value ([5]; HeLa, ER co-transfected, 1 nM E2, pharmacologic concentrations of antiestrogen) was “either partially or completely restored to the uninhibited values” and the “reporter activity at the end of 48 h post-transfection” value ([5]; antiestrogen introduced 24 h after co-transfection) was “a doubling of the reporter activity”. The “onset of activation of FR-α promoter” value ([5]; antiestrogen introduced 24 h after transfection) was “began within hours and progressively increased”, the “FR-α promoter activity in the absence of ER” value ([5]; no ER co-transfected, HeLa and IGROV-1, results not shown) was “did not alter FR-α promoter activity” and the FR-α promoter activity [6] was “increased the promoter activity”.

— patent US20080131366A1, “Folate Receptor Gene Modulation For Cancer Diagnosis And Therapy” (priority 2003, published 2008)
